Results: paper PMC5218480 (PLoS ONE, 2017)

System: MV-4-11 cells
Test: Gene expression microarray analysis (Affymetrix PrimeView) and GSEA
Type: cell-based, human
Parameters: RFU PODN (11730768_x_at) / Fold change /veh PODN (11730768_x_at) / RFU LINC00158 (11744669_a_at) / Fold change /veh LINC00158 (11744669_a_at) / RFU DUSP10 (11751237_a_at) / Fold change /veh DUSP10 (11751237_a_at) / RFU ID3 (11757404_x_at) / Fold change /veh ID3 (11757404_x_at) / RFU PLEKHG5 (11737974_s_at) / Fold change /veh PLEKHG5 (11737974_s_at) / RFU LRRC4B (11730491_at) / Fold change /veh LRRC4B (11730491_at) / RFU GIMAP4 (11747438_a_at) / Fold change /veh GIMAP4 (11747438_a_at) / RFU KRT8 (11758183_x_at) / Fold change /veh KRT8 (11758183_x_at) / RFU CNN1 (11734310_a_at) / Fold change /veh CNN1 (11734310_a_at) / RFU VPS37D (11726825_at) / Fold change /veh VPS37D (11726825_at) / RFU C10orf10 (11716522_x_at) / Fold change /veh C10orf10 (11716522_x_at) / RFU KIR2DL2 /// KIR2DL4 /// KIR2DL5A /// KIR2DL5B /// KIR2DS1 /// KIR2DS2 /// KIR2DS3 /// KIR2DS4 /// KIR3DL3 /// KIR3DL3 /// KIR3DS1 (11738374_at) / Fold change /veh KIR2DL2 /// KIR2DL4 /// KIR2DL5A /// KIR2DL5B /// KIR2DS1 /// KIR2DS2 /// KIR2DS3 /// KIR2DS4 /// KIR3DL3 /// KIR3DL3 /// KIR3DS1 (11738374_at) / RFU C1QL1 (11718748_at) / Fold change /veh C1QL1 (11718748_at) / RFU TMPRSS4 (11747572_a_at) / Fold change /veh TMPRSS4 (11747572_a_at) / RFU HAMP (11756126_x_at) / Fold change /veh HAMP (11756126_x_at) / RFU RNFT2 (11725882_a_at) / Fold change /veh RNFT2 (11725882_a_at) / RFU NR4A2 (11747474_a_at) / Fold change /veh NR4A2 (11747474_a_at) / RFU ABCC12 (11746883_a_at) / Fold change /veh ABCC12 (11746883_a_at) / RFU TMEM136 (11760407_x_at) / Fold change /veh TMEM136 (11760407_x_at) / RFU CLDN22 /// WWC2 (11732394_at) / Fold change /veh CLDN22 /// WWC2 (11732394_at) / RFU HLA-DPB1 (11760878_x_at) / Fold change /veh HLA-DPB1 (11760878_x_at) / RFU SPINT1 (11716480_a_at) / Fold change /veh SPINT1 (11716480_a_at) / RFU GAP43 (11754022_s_at) / Fold change /veh GAP43 (11754022_s_at) / RFU A4GNT (11735810_at) / Fold change /veh A4GNT (11735810_at) / RFU PRB3 (11715151_x_at) / Fold change /veh PRB3 (11715151_x_at) / RFU TUBB4B (11761932_at) / Fold change /veh TUBB4B (11761932_at) / RFU CAPN14 (11732068_a_at) / Fold change /veh CAPN14 (11732068_a_at) / RFU TMCC2 (11721928_a_at) / Fold change /veh TMCC2 (11721928_a_at) / RFU IRGQ (11745062_a_at) / Fold change /veh IRGQ (11745062_a_at) / RFU FAM174B (11720279_a_at) / Fold change /veh FAM174B (11720279_a_at) / RFU TMPRSS4 (11748680_a_at) / Fold change /veh TMPRSS4 (11748680_a_at) / RFU FAM212B (11763350_a_at) / Fold change /veh FAM212B (11763350_a_at) / RFU PLEKHG5 (11743358_a_at) / Fold change /veh PLEKHG5 (11743358_a_at) / RFU ZSCAN30 (11745921_a_at) / Fold change /veh ZSCAN30 (11745921_a_at) / RFU CMKLR1 (11741424_a_at) / Fold change /veh CMKLR1 (11741424_a_at) / RFU LOC101060620 /// MAPK8IP1 (11723275_at) / Fold change /veh LOC101060620 /// MAPK8IP1 (11723275_at) / RFU SPTSSB (11747773_x_at) / Fold change /veh SPTSSB (11747773_x_at) / RFU PRSS12 (11739890_at) / Fold change /veh PRSS12 (11739890_at) / RFU BIN1 (11741810_x_at) / Fold change /veh BIN1 (11741810_x_at) / RFU WNT11 (11732464_a_at) / Fold change /veh WNT11 (11732464_a_at) / RFU C10orf10 (11716521_a_at) / Fold change /veh C10orf10 (11716521_a_at) / RFU C5orf56 (11738089_at) / Fold change /veh C5orf56 (11738089_at) / RFU CYB561 (11721691_x_at) / Fold change /veh CYB561 (11721691_x_at) / RFU ANKRD19P (11752326_a_at) / Fold change /veh ANKRD19P (11752326_a_at) / RFU OR2T12 /// OR2T33 /// OR2T8 (11738714_s_at) / Fold change /veh OR2T12 /// OR2T33 /// OR2T8 (11738714_s_at) / RFU VCAN (11748164_a_at) / Fold change /veh VCAN (11748164_a_at) / RFU JSRP1 (11732532_at) / Fold change /veh JSRP1 (11732532_at) / RFU KRTAP10-11 (11738290_x_at) / Fold change /veh KRTAP10-11 (11738290_x_at) / RFU MYO3A (11730013_a_at) / Fold change /veh MYO3A (11730013_a_at) / RFU EBF3 (11725865_a_at) / Fold change /veh EBF3 (11725865_a_at) / RFU CAMK2N1 (11719241_x_at) / Fold change /veh CAMK2N1 (11719241_x_at) / RFU C5orf56 (11738088_a_at) / Fold change /veh C5orf56 (11738088_a_at) / RFU OLFML3 (11715873_a_at) / Fold change /veh OLFML3 (11715873_a_at) / RFU LOC100653217 /// NTM (11731650_a_at) / Fold change /veh LOC100653217 /// NTM (11731650_a_at) / RFU MAPK11 (11762145_a_at) / Fold change /veh MAPK11 (11762145_a_at) / RFU FIZ1 (11724087_x_at) / Fold change /veh FIZ1 (11724087_x_at) / RFU OASL (11726364_x_at) / Fold change /veh OASL (11726364_x_at) / RFU SOX15 (11748057_x_at) / Fold change /veh SOX15 (11748057_x_at) / RFU CD79A (11719716_a_at) / Fold change /veh CD79A (11719716_a_at) / RFU HIST1H1D (11736915_at) / Fold change /veh HIST1H1D (11736915_at) / RFU CASKIN2 (11723855_a_at) / Fold change /veh CASKIN2 (11723855_a_at) / RFU LOC730098 (11760151_x_at) / Fold change /veh LOC730098 (11760151_x_at) / RFU OR4N2 (11742367_at) / Fold change /veh OR4N2 (11742367_at) / RFU PRRT2 (11749266_a_at) / Fold change /veh PRRT2 (11749266_a_at) / RFU SNX32 (11753110_a_at) / Fold change /veh SNX32 (11753110_a_at) / RFU CDHR5 (11726645_a_at) / Fold change /veh CDHR5 (11726645_a_at) / RFU RCAN1 (11760418_a_at) / Fold change /veh RCAN1 (11760418_a_at) / RFU FAM167A (11723789_a_at) / Fold change /veh FAM167A (11723789_a_at) / RFU FAM26E (11764081_at) / Fold change /veh FAM26E (11764081_at) / RFU ISYNA1 (11749810_s_at) / Fold change /veh ISYNA1 (11749810_s_at) / RFU ACY1 (11761880_at) / Fold change /veh ACY1 (11761880_at) / RFU 11764098_at / Fold change /veh 11764098_at / RFU SAMD14 (11745864_x_at) / Fold change /veh SAMD14 (11745864_x_at) / RFU NPB (11741838_a_at) / Fold change /veh NPB (11741838_a_at) / RFU TMPRSS6 (11731388_a_at) / Fold change /veh TMPRSS6 (11731388_a_at) / RFU KRTAP10-2 (11738614_at) / Fold change /veh KRTAP10-2 (11738614_at) / RFU ARHGAP8 /// PRR5-ARHGAP8 (11727945_x_at) / Fold change /veh ARHGAP8 /// PRR5-ARHGAP8 (11727945_x_at) / RFU KRTAP5-7 /// NADSYN1 (11734609_at) / Fold change /veh KRTAP5-7 /// NADSYN1 (11734609_at) / RFU RASL12 (11751679_a_at) / Fold change /veh RASL12 (11751679_a_at) / RFU CDKN2B (11736163_a_at) / Fold change /veh CDKN2B (11736163_a_at) / RFU PRF1 (11729649_at) / Fold change /veh PRF1 (11729649_at) / RFU, ZNF638 /// ZNF638-IT1 / Fold change vs veh, ZNF638 /// ZNF638-IT1 / RFU, PANK3 / Fold change vs veh, PANK3 / RFU, SH3YL1 / Fold change vs veh, SH3YL1 / RFU, ZEB2 / Fold change vs veh, ZEB2 / RFU, NRIP1 / Fold change vs veh, NRIP1 / RFU, PTTG1IP / Fold change vs veh, PTTG1IP / RFU, CAPN2 / Fold change vs veh, CAPN2 / RFU, MED14 / Fold change vs veh, MED14 / RFU, SNORA58 / Fold change vs veh, SNORA58 / RFU, C1orf63 / Fold change vs veh, C1orf63 / RFU, LRRFIP1 / Fold change vs veh, LRRFIP1 / RFU, NDUFAF7 / Fold change vs veh, NDUFAF7 / RFU, SLC12A2 / Fold change vs veh, SLC12A2 / RFU, IBTK / Fold change vs veh, IBTK / RFU, ESF1 / Fold change vs veh, ESF1 / Fold change vs veh, TMEM50B / RFU, TAOK1 / Fold change vs veh, TAOK1 / RFU, ACBD3 / Fold change vs veh, ACBD3 / RFU, TMA16 / Fold change vs veh, TMA16 / RFU, RWDD3 / Fold change vs veh, RWDD3 / RFU, BCAT1 / Fold change vs veh, BCAT1 / RFU, EDEM3 / Fold change vs veh, EDEM3 / RFU, TMEM33 / Fold change vs veh, TMEM33 / RFU, WDR75 / Fold change vs veh, WDR75 / RFU, AHCTF1 / Fold change vs veh, AHCTF1 / RFU, TFRC / Fold change vs veh, TFRC / RFU, ZDHHC17 / Fold change vs veh, ZDHHC17 / RFU, NOM1 / Fold change vs veh, NOM1 / RFU, ARL8B / Fold change vs veh, ARL8B / RFU, ZBTB11 / Fold change vs veh, ZBTB11 / RFU, TAMM41 / Fold change vs veh, TAMM41 / RFU, KIAA1704 /// LOC100996395 / Fold change vs veh, KIAA1704 /// LOC100996395 / RFU, ING1 / Fold change vs veh, ING1 / RFU, TRMT61B / Fold change vs veh, TRMT61B / RFU, FUBP3 / Fold change vs veh, FUBP3 / RFU, TP53 / Fold change vs veh, TP53 / RFU, TNKS2 / Fold change vs veh, TNKS2 / RFU, ZFP14 / Fold change vs veh, ZFP14 / RFU, ACTR2 / Fold change vs veh, ACTR2 / RFU, PPP3R1 / Fold change vs veh, PPP3R1 / RFU, PIK3R1 / Fold change vs veh, PIK3R1 / RFU, HNRNPA1 / Fold change vs veh, HNRNPA1 / RFU, RNF170 / Fold change vs veh, RNF170 / RFU, ZNF28 / Fold change vs veh, ZNF28 / RFU, RNGTT / Fold change vs veh, RNGTT / RFU, OGT / Fold change vs veh, OGT / RFU, BRD1 / Fold change vs veh, BRD1 / RFU, MARS / Fold change vs veh, MARS / RFU, ZNF655 / Fold change vs veh, ZNF655 / RFU, FAHD1 / Fold change vs veh, FAHD1 / RFU, BDP1 / Fold change vs veh, BDP1 / RFU, LRRCC1 / Fold change vs veh, LRRCC1 / RFU, ARID1A / Fold change vs veh, ARID1A / RFU, ZNF146 / Fold change vs veh, ZNF146 / RFU, ZNF330 / Fold change vs veh, ZNF330 / RFU, GPN3 / Fold change vs veh, GPN3 / RFU, C9orf123 / Fold change vs veh, C9orf123 / RFU, N4BP2L2 / Fold change vs veh, N4BP2L2 / RFU, ARFIP1 / Fold change vs veh, ARFIP1 / RFU, FAM179B / Fold change vs veh, FAM179B / RFU, BCL10 / Fold change vs veh, BCL10 / RFU, UHRF1BP1L / Fold change vs veh, UHRF1BP1L / RFU, BET1 / Fold change vs veh, BET1 / RFU, CNOT2 / Fold change vs veh, CNOT2 / RFU, ZNF268 / Fold change vs veh, ZNF268 / Fold change vs veh, ZNF507 / RFU, DGCR2 / Fold change vs veh, DGCR2 / RFU, WDSUB1 / Fold change vs veh, WDSUB1 / Fold change vs veh, HSP90B1 /// MIR3652 / RFU, ADSS / Fold change vs veh, ADSS / RFU, GK / Fold change vs veh, GK / RFU, ZNF148 / Fold change vs veh, ZNF148 / RFU, TAF9 / Fold change vs veh, TAF9 / RFU, SLC1A5 / Fold change vs veh, SLC1A5 / RFU, SLMO2 / Fold change vs veh, SLMO2 / RFU, ABCC4 / Fold change vs veh, ABCC4 / RFU, LOC101060439 /// RAP1B / Fold change vs veh, LOC101060439 /// RAP1B / RFU, RFX7 / Fold change vs veh, RFX7 / RFU, GTPBP10 / Fold change vs veh, GTPBP10 / RFU, CNEP1R1 / Fold change vs veh, CNEP1R1 / RFU, BIVM-ERCC5 /// ERCC5 / Fold change vs veh, BIVM-ERCC5 /// ERCC5 / RFU, ILF3 / Fold change vs veh, ILF3 / RFU 11762660_at / Fold change /veh 11762660_at / RFU VCAN (11757783_s_at) / Fold change /veh VCAN (11757783_s_at) / RFU DDX43 (11728927_at) / Fold change /veh DDX43 (11728927_at) / RFU KRT8 (11758188_x_at) / Fold change /veh KRT8 (11758188_x_at) / RFU NKD1 (11759106_at) / Fold change /veh NKD1 (11759106_at) / RFU SRD5A1 (11742802_a_at) / Fold change /veh SRD5A1 (11742802_a_at) / RFU TPSAB1 /// TPSB2 (11721975_s_at) / Fold change /veh TPSAB1 /// TPSB2 (11721975_s_at) / RFU GSTM3 (11746129_a_at) / Fold change /veh GSTM3 (11746129_a_at) / RFU IL23R (11737362_x_at) / Fold change /veh IL23R (11737362_x_at) / RFU TMEM51 (11727254_a_at) / Fold change /veh TMEM51 (11727254_a_at) / RFU PIWIL2 (11732686_x_at) / Fold change /veh PIWIL2 (11732686_x_at) / RFU ORM1 (11744905_x_at) / Fold change /veh ORM1 (11744905_x_at) / RFU CCDC152 (11743942_at) / Fold change /veh CCDC152 (11743942_at) / RFU ECM1 (11717891_a_at) / Fold change /veh ECM1 (11717891_a_at) / RFU IL23R (11748794_a_at) / Fold change /veh IL23R (11748794_a_at) / RFU TNFAIP8L3 (11732012_x_at) / Fold change /veh TNFAIP8L3 (11732012_x_at) / RFU MBOAT4 (11741988_at) / Fold change /veh MBOAT4 (11741988_at) / RFU 11764193_at / Fold change /veh 11764193_at / RFU TMEM53 (11763286_at) / Fold change /veh TMEM53 (11763286_at) / RFU MAGEB2 (11727129_at) / Fold change /veh MAGEB2 (11727129_at) / RFU TMEM200A (11744735_a_at) / Fold change /veh TMEM200A (11744735_a_at) / RFU CCDC152 (11751479_a_at) / Fold change /veh CCDC152 (11751479_a_at) / RFU FAM211A (11726209_a_at) / Fold change /veh FAM211A (11726209_a_at) / RFU RGS16 (11746705_a_at) / Fold change /veh RGS16 (11746705_a_at) / RFU VCAN (11755009_s_at) / Fold change /veh VCAN (11755009_s_at) / RFU RHOB (11743442_s_at) / Fold change /veh RHOB (11743442_s_at) / RFU RGS16 (11720943_a_at) / Fold change /veh RGS16 (11720943_a_at) / RFU RGS16 (11720944_at) / Fold change /veh RGS16 (11720944_at) / RFU, VPS4B / Fold change vs veh, VPS4B / RFU, CREB1 / Fold change vs veh, CREB1 / RFU, DNAJC13 / Fold change vs veh, DNAJC13 / RFU, GNAQ / Fold change vs veh, GNAQ / RFU, CDK5R1 / Fold change vs veh, CDK5R1 / RFU, ZRANB3 / Fold change vs veh, ZRANB3 / RFU, CUL4A / Fold change vs veh, CUL4A / RFU, CCNY / Fold change vs veh, CCNY / RFU, UFL1 / Fold change vs veh, UFL1 / RFU, COG3 / Fold change vs veh, COG3 / RFU, DIAPH2 / Fold change vs veh, DIAPH2 / RFU, SKA2 / Fold change vs veh, SKA2 / RFU, AFF3 / Fold change vs veh, AFF3 / RFU, LMF1 / Fold change vs veh, LMF1 / RFU, IPO11 / Fold change vs veh, IPO11 / RFU, DFFB / Fold change vs veh, DFFB / RFU, FOXP1 / Fold change vs veh, FOXP1 / RFU, CARD8 / Fold change vs veh, CARD8 / RFU, STRN3 / Fold change vs veh, STRN3 / RFU, ADK / Fold change vs veh, ADK / RFU, RASSF2 / Fold change vs veh, RASSF2 / RFU, WIPF1 / Fold change vs veh, WIPF1 / RFU, LARP1B / Fold change vs veh, LARP1B / RFU, RASA1 / Fold change vs veh, RASA1 / RFU, RB1 / Fold change vs veh, RB1 / RFU, PPFIA1 / Fold change vs veh, PPFIA1 / RFU, MAT2A / Fold change vs veh, MAT2A / RFU, CCT5 / Fold change vs veh, CCT5 / RFU, WDR92 / Fold change vs veh, WDR92 / RFU, CUX1 / Fold change vs veh, CUX1 / RFU, TTC7A / Fold change vs veh, TTC7A / RFU, TMEM135 / Fold change vs veh, TMEM135 / RFU, DEPTOR / Fold change vs veh, DEPTOR / RFU, CPM / Fold change vs veh, CPM / RFU, DNAJB6 / Fold change vs veh, DNAJB6 / RFU, CACNA2D3 / Fold change vs veh, CACNA2D3 / RFU, DTX4 / Fold change vs veh, DTX4 / RFU, TFCP2 / Fold change vs veh, TFCP2 / RFU, GMCL1 /// GMCL1P1 / Fold change vs veh, GMCL1 /// GMCL1P1 / RFU, AEBP2 / Fold change vs veh, AEBP2 / RFU, SNHG1 /// SNORD22 /// SNORD25 /// SNORD26 /// SNORD27 /// SNORD28 /// SNORD29 /// SNORD31 / Fold change vs veh, SNHG1 /// SNORD22 /// SNORD25 /// SNORD26 /// SNORD27 /// SNORD28 /// SNORD29 /// SNORD31 / Fold change (Aza/veh), C12orf56 (ProbeSet 11735607_a_at) / Fold change (ACY-1035/veh), C12orf56 (ProbeSet 11735607_a_at) / Fold change (Aza/veh), FGFR1OP (ProbeSet 11751329_s_at) / Fold change (ACY-1035/veh), FGFR1OP (ProbeSet 11751329_s_at) / Fold change (Aza/veh), VPS36 (ProbeSet 11739960_a_at) / Fold change (ACY-1035/veh), VPS36 (ProbeSet 11739960_a_at) / RFU SYPL1 (11715823_x_at) / Fold change /veh SYPL1 (11715823_x_at) / RFU IGFBP7 (11715501_s_at) / Fold change /veh IGFBP7 (11715501_s_at) / RFU REEP3 (11722064_at) / Fold change /veh REEP3 (11722064_at) / RFU IGLL1 (11728026_x_at) / Fold change /veh IGLL1 (11728026_x_at): dose or concentration left out as unconfirmed
Conditions: MV-4-11 cells, 48 hours

Nc1ccc(-c2cccs2)cc1NC(=O)c1ccc2c(c1)cc(C1CC1)n2CCN1CCOCC1 [ACY-1035]
Fold change /veh RCAN1 (11760418_a_at): 1.01
